Tested on: hepatocytes
Experiment: Seq-Well scRNA-Seq of hepatocytes after APAP overdose (signature scores, DEG vs untreated)
Assay type: in vivo, mouse
Conditions: A6 vs UT

In the case of `CC(=O)Nc1ccc(O)cc1` [APAP, acetaminophen], the “Med13 A6logFC” value is reported as 0.2949, the “Med13 avg_logFC” value is reported as 0.2949 and the “Med13 pct.1” value is reported as 0.325. For the same compound, the “Megf9 A6logFC” value was 0.2769, the “Megf9 avg_logFC” value was 0.2769 and the “Megf9 pct.1” value was 0.289. The “Mettl7b avg_logFC” value was −0.4527, the “Mettl7b pct.1” value was 0.647 and the “Mettl20 avg_logFC” value was −0.3314. The “Mettl20 pct.1” value was 0.119, the “Mfsd2a avg_logFC” value was 0.6661 and the “Mgea5 A6logFC” value was 0.3263. The “Mgea5 avg_logFC” value was 0.3263, the “Mgea5 pct.1” value was 0.413 and the “Mgst1 avg_logFC” value was −1.06. For the same compound, the “Minos1 avg_logFC” value was −0.4555, the “Minos1 pct.1” value was 0.332 and the “Mlycd avg_logFC” value was −0.2909. For the same compound, the “Mlycd pct.1” value was 0.329, the “Mmp8 avg_logFC” value was 0.359 and the “Mmp14 avg_logFC” value was 0.2889. For the same compound, the “Mmp14 pct.1” value was 0.253, the “Mpc2 avg_logFC” value was −0.4828 and the “Mpc2 pct.1” value was 0.599. The “Mpeg1 avg_logFC” value was 0.4935, the “Mpeg1 pct.1” value was 0.263 and the “Mrap avg_logFC” value was 0.8841. For the same compound, the “Mrp63 avg_logFC” value was −0.4422, the “Mrp63 pct.1” value was 0.277 and the “Mrpl11 A6logFC” value was −0.2685. The “Mrpl15 A6logFC” value was −0.2912, the “Mrpl20 A6logFC” value was −0.3093 and the “Mrpl20 avg_logFC” value was −0.3093. The “Mrpl20 pct.1” value was 0.301, the “Mrpl28 A6logFC” value was −0.2699 and the “Mrpl28 avg_logFC” value was −0.2699. The “Mrpl28 pct.1” value was 0.229, the “Mrpl33 A6logFC” value was −0.2654 and the “Mrpl34 A6logFC” value was −0.2838. The “Mrpl41 A6logFC” value was −0.2674, the “Mrpl42 A6logFC” value was −0.2845 and the “Mrps12 A6logFC” value was −0.2504. For the same compound, the “Mrps12 avg_logFC” value was −0.2504, the “Mrps12 pct.1” value was 0.193 and the “Mrps24 avg_logFC” value was −0.3904. The “Mrps24 pct.1” value was 0.31, the “Msrb1 avg_logFC” value was −0.599 and the “Mt1 avg_logFC” value was 2.388. The “Mt2 avg_logFC” value was 2.063, the “Mthfd2 avg_logFC” value was 0.2624 and the “Mug2 avg_logFC” value was 0.3683. The “Mug2 pct.1” value was 0.776, the “Mup3 avg_logFC” value was −0.7035 and the “Mup4 avg_logFC” value was −0.9953. The “Mup5 avg_logFC” value was −1.237, the “Mup6 avg_logFC” value was −1.872 and the “Mup7 avg_logFC” value was −0.9414. For the same compound, the “Mup8 avg_logFC” value was −0.7526, the “Mup8 pct.1” value was 0.098 and the “Mup9 avg_logFC” value was −2.004. The “Mup11 avg_logFC” value was −3.214, the “Mup12 avg_logFC” value was −1.27 and the “Mup15 avg_logFC” value was −1.316. For the same compound, the “Mup16 avg_logFC” value was −1.602, the “Mup17 avg_logFC” value was −2.354 and the “Mup18 avg_logFC” value was −1.628. The “Mup19 avg_logFC” value was −2.396, the “Mup21 avg_logFC” value was −0.8272 and the “Mvd A6logFC” value was −0.2704. For the same compound, the “Mxd1 A6logFC” value was 0.2978, the “Mybbp1a avg_logFC” value was 0.4312 and the “Mybbp1a pct.1” value was 0.396. The “Myeov2 A6logFC” value was −0.3052, the “Myeov2 avg_logFC” value was −0.3052 and the “Myeov2 pct.1” value was 0.303. The “Myh9 avg_logFC” value was 1.16, the “Myl12a avg_logFC” value was 0.3908 and the “Myl12a pct.1” value was 0.461. For the same compound, the “Myo1b A6logFC” value was 0.2624, the “Myo1e avg_logFC” value was 0.6143 and the “Naa50 A6logFC” value was 0.2657. For the same compound, the “Naa50 avg_logFC” value was 0.2657, the “Naa50 pct.1” value was 0.444 and the “Naprt1 A6logFC” value was −0.3381. The “Nars avg_logFC” value was 0.4378, the “Nars pct.1” value was 0.606 and the “Ncl avg_logFC” value was 0.4845. For the same compound, the “Ncl pct.1” value was 0.69, the “Ndufa2 avg_logFC” value was −0.3965 and the “Ndufa2 pct.1” value was 0.492. The “Ndufa3 avg_logFC” value was −0.4116, the “Ndufa3 pct.1” value was 0.344 and the “Ndufa4 avg_logFC” value was −0.6831. The “Ndufa5 A6logFC” value was −0.252, the “Ndufa5 avg_logFC” value was −0.252 and the “Ndufa5 pct.1” value was 0.418. For the same compound, the “Ndufa6 avg_logFC” value was −0.6136, the “Ndufa7 avg_logFC” value was −0.5559 and the “Ndufa7 pct.1” value was 0.406. The “Ndufa13 avg_logFC” value was −0.4388, the “Ndufa13 pct.1” value was 0.549 and the “Ndufb3 A6logFC” value was −0.3272. The “Ndufb6 avg_logFC” value was −0.5077, the “Ndufb6 pct.1” value was 0.475 and the “Ndufb9 avg_logFC” value was −0.5038. The “Ndufb9 pct.1” value was 0.661, the “Ndufb10 A6logFC” value was −0.3004 and the “Ndufc2 avg_logFC” value was −0.4253. The “Ndufc2 pct.1” value was 0.36, the “Ndufs4 A6logFC” value was −0.3132 and the “Ndufs6 avg_logFC” value was −0.5379. The “Ndufs6 pct.1” value was 0.482, the “Ndufv2 A6logFC” value was −0.3276 and the “Ndufv2 avg_logFC” value was −0.3276. The “Ndufv2 pct.1” value was 0.461, the “Neat1 avg_logFC” value was 0.6374 and the “Neat1 pct.1” value was 0.31. The “Nek7 A6logFC” value was 0.2911, the “Nek7 avg_logFC” value was 0.2911 and the “Nek7 pct.1” value was 0.394. For the same compound, the “Net1 A6logFC” value was 0.3479, the “Nid1 avg_logFC” value was 0.3426 and the “Nit2 avg_logFC” value was −0.4859. For the same compound, the “Nit2 pct.1” value was 0.301, the “Nolc1 avg_logFC” value was 0.4722 and the “Nolc1 pct.1” value was 0.363. The “Nop56 avg_logFC” value was 0.2657, the “Nop56 pct.1” value was 0.282 and the “Nop58 avg_logFC” value was 0.6634. The “Nploc4 A6logFC” value was 0.2918, the “Nploc4 avg_logFC” value was 0.2918 and the “Nploc4 pct.1” value was 0.351. For the same compound, the “Nqo2 A6logFC” value was −0.2678, the “Nqo2 avg_logFC” value was −0.2678 and the “Nqo2 pct.1” value was 0.317. For the same compound, the “Nr0b2 avg_logFC” value was −0.293, the “Nr0b2 pct.1” value was 0.086 and the “Nr1i3 avg_logFC” value was −0.4127. For the same compound, the “Nr1i3 pct.1” value was 0.165, the “Nr2f6 avg_logFC” value was −0.3754 and the “Nr2f6 pct.1” value was 0.234. The “Nrip1 avg_logFC” value was 0.2729, the “Nrip1 pct.1” value was 0.246 and the “Nucks1 A6logFC” value was 0.3558. For the same compound, the “Nudt4 A6logFC” value was 0.2542, the “Nudt7 avg_logFC” value was −1.564 and the “Oaf avg_logFC” value was −0.7329. For the same compound, the “Oat avg_logFC” value was −1.225, the “PM20l1 avg_logFC” value was 0.3085 and the “PM20l1 pct.1” value was 0.372. For the same compound, the “Pa2g4 A6logFC” value was 0.2893, the “Pa2g4 avg_logFC” value was 0.2893 and the “Pa2g4 pct.1” value was 0.492. For the same compound, the “Pabpc1 avg_logFC” value was 0.4101, the “Pabpc1 pct.1” value was 0.697 and the “Pah avg_logFC” value was −0.5221. The “Pak2 avg_logFC” value was 0.2815, the “Pak2 pct.1” value was 0.308 and the “Papss2 A6logFC” value was −0.2545. The “Papss2 avg_logFC” value was −0.2545, the “Papss2 pct.1” value was 0.337 and the “Paqr9 A6logFC” value was −0.3323. The “Park7 avg_logFC” value was −0.2602, the “Park7 pct.1” value was 0.601 and the “Pbld1 avg_logFC” value was −0.4425. For the same compound, the “Pbld1 pct.1” value was 0.315, the “Pcbd1 avg_logFC” value was −0.6878 and the “Pck1 avg_logFC” value was −0.6522. For the same compound, the “Pcm1 A6logFC” value was 0.2654, the “Pcm1 avg_logFC” value was 0.2654 and the “Pcm1 pct.1” value was 0.274. For the same compound, the “Pde3b A6logFC” value was −0.259, the “Pde3b avg_logFC” value was −0.259 and the “Pde3b pct.1” value was 0.243. For the same compound, the “Pdia4 avg_logFC” value was −0.2719, the “Pdia4 pct.1” value was 0.43 and the “Pdia6 avg_logFC” value was −0.39. The “Pdia6 pct.1” value was 0.47, the “Pdzd8 A6logFC” value was 0.2863 and the “Pdzd8 avg_logFC” value was 0.2863. The “Pdzd8 pct.1” value was 0.36, the “Pecr avg_logFC” value was −0.3981 and the “Pecr pct.1” value was 0.446. The “Pet100 A6logFC” value was −0.28, the “Pfkfb2 avg_logFC” value was 0.29 and the “Pfkfb2 pct.1” value was 0.26. The “Pgls A6logFC” value was −0.2747, the “Pgls avg_logFC” value was −0.2747 and the “Pgls pct.1” value was 0.22. The “Phf20l1 A6logFC” value was 0.3085, the “Phlda1 avg_logFC” value was 0.5492 and the “Pi4k2a A6logFC” value was 0.3536. The “Picalm avg_logFC” value was 0.7545, the “Pigr avg_logFC” value was 0.3487 and the “Pigr pct.1” value was 0.947. The “Pkp4 A6logFC” value was 0.323, the “Pkp4 avg_logFC” value was 0.323 and the “Pkp4 pct.1” value was 0.401. The “Pla2g7 avg_logFC” value was 0.2823, the “Pla2g7 pct.1” value was 0.119 and the “Plbd2 A6logFC” value was 0.2649. For the same compound, the “Plbd2 avg_logFC” value was 0.2649.

Reference: patent US20230053540A1, “TREATMENT OF LIVER INJURY” (Massachusetts Institute of Technology, priority 2019, published 2023)
